From ChEMBL document CHEMBL3039007, “Structure-based identification of OATP1B1/3 inhibitors” (Mol Pharmacol, 2013) come the findings set out here.

Series [1] addresses T1, Solute carrier organic anion transporter family member 1B3 (Homo sapiens, UniProt Q9NPD5).
T1 sequence (Q9NPD5 whole entry): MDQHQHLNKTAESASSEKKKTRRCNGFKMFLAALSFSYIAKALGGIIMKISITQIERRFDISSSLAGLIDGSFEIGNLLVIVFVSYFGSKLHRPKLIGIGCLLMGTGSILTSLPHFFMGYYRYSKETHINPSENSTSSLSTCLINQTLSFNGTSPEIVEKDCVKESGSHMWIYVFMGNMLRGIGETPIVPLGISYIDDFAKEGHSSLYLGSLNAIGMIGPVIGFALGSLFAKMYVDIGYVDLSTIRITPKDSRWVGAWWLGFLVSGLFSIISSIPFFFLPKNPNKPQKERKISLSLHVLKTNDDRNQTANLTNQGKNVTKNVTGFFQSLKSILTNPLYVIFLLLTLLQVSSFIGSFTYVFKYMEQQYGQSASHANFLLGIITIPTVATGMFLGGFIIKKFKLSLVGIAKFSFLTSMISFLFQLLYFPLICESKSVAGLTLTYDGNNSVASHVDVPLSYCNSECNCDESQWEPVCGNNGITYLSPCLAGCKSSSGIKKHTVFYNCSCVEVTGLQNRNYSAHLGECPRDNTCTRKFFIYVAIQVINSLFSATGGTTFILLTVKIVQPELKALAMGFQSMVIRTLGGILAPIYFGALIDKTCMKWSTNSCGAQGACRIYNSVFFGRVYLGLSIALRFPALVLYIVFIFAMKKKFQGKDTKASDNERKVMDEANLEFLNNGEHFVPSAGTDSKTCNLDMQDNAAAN
Particulars: chinese hamster, cho, 10 µM.

Series [2] has as its target T2, Solute carrier organic anion transporter family member 1B1 (Homo sapiens, UniProt Q9Y6L6).
T2 sequence (Q9Y6L6 whole entry): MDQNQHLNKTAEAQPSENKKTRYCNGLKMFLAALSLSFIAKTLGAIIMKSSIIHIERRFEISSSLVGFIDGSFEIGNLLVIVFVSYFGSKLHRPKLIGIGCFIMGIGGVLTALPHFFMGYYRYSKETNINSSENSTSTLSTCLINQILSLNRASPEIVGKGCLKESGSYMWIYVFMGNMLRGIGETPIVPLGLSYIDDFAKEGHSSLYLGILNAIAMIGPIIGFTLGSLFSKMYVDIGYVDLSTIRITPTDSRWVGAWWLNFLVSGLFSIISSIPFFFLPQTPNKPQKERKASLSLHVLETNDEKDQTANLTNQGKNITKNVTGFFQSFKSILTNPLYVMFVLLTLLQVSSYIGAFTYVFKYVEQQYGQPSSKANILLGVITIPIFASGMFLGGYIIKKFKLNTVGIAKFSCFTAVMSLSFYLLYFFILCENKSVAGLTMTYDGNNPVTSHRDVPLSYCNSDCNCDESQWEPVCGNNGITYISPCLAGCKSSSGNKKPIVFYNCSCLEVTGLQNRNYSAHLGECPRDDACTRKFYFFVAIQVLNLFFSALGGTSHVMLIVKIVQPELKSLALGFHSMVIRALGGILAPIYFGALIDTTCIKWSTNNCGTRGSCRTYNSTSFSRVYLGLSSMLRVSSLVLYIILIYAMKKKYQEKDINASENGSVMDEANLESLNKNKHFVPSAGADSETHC
The conditions noted are these: chinese hamster, cho, 10 µM.

In general, residual activity refers to the signal under treatment as a percentage of the control signal. For the molecule `CC[C@@H](C)C(=O)O[C@H]1[C@H](O)[C@H]2[C@@H](CN3C[C@@H](C)CC[C@H]3[C@@]2(C)O)[C@@H]2C[C@]34O[C@]5(O)[C@@H](OC(=O)[C@@](C)(O)CC)CC[C@@]3(C)[C@@H]5[C@@H](OC(C)=O)[C@@H](OC(C)=O)[C@H]4[C@@]21O` [PROTOVERATRINE A], the residual activity in series [1] stood at 77.86%; in series [2], 93.58%.
On to `CC=CC(=O)N(CC)c1ccccc1C`, for which the results for the residual activity in series [1] and in series [2] were 72.95% and 71.83%, respectively.
Take `[H]/N=C(/N)NS(=O)(=O)c1ccc(N)cc1` [SULFAGUANIDINE]: the values for the residual activity in series [1] and in series [2] were 108% and 119.2%, respectively.
On the same counts, the results for `CCN(CC)CCNC(=O)c1cc(S(C)(=O)=O)ccc1OC.Cl` [TIAPRIDE HYDROCHLORIDE] are 94.93% and 106.2%.
Regarding `CCN1CCCC(OC(=O)C(c2ccccc2)c2ccccc2)C1.Cl` (stereo not given) [PIPERIDOLATE HYDROCHLORIDE], the residual activity is listed as 96% in series [1] and 65.65% in series [2].
Take `C[N+]1(C)C[C@@H](O)C[C@@H]1C(=O)[O-]` [BETONICINE]: the figures for the residual activity in series [1] and in series [2] were 105.3% and 89.8%, respectively.
As to `C=C(C)[C@H]1CN[C@H](C(=O)O)[C@H]1CC(=O)O` [KAINIC ACID], the values for the residual activity in series [1] and in series [2] were 103.1% and 106.3%, respectively.
For `CC(=O)OCC(=O)[C@@]1(O)CC[C@H]2[C@@H]3CC[C@H]4CC(OC(C)=O)CC[C@]4(C)[C@H]3C(=O)C[C@@]21C` (stereo not given in full), the residual activity in series [1] came to 97.61%; in series [2] it was 99.36%.
Consider `CCCc1cc(=O)[nH]c(=S)[nH]1` [PROPYLTHIOURACIL], for which the residual activity is 90.71% in series [1] and 79.91% in series [2].
On the same counts, the results for `O=C1OC(c2ccc(O)cc2)(c2ccc(O)cc2)c2ccccc21` [PHENOLPHTHALEIN] are 37.96% and 20.62%.
In the case of `C[C@]12CC[C@@H]3c4ccc(OS(=O)(=O)[O-])cc4CC[C@H]3[C@@H]1CC[C@@H]2O.[Na+]`, the values for the residual activity in series [1] and in series [2] were 95.65% and 53.18%, respectively.
On to `COC(=O)C(O)c1ccccc1` (stereo not given) [MANDELIC ACID, METHYL ESTER], for which the residual activity is given as 76.32% in series [1] and 97.92% in series [2].
Take `COc1ccc(C2CC(=O)c3ccc(OC)cc3O2)cc1` (stereo not given) [LIQUIRITIGENIN DIMETHYL ETHER]: the residual activity stood at 114.3% in series [1] and 104.2% in series [2].
Regarding `N=C(N)NCCCCN.O=S(=O)(O)O` [AGMATINE SULFATE], the figures for the residual activity in series [1] and in series [2] were 110% and 111.9%, respectively.
For `COC1=C(O)C(=O)c2c(cc3oc(C(C)=O)c(O)c3c2O)C1=O` [RHODOCLADONIC ACID], the figures for the residual activity in series [1] and in series [2] were 96.54% and 93.89%, respectively.
In the same order, the values of `CCC(=O)O[C@]1(C(=O)CCl)[C@@H](C)C[C@H]2[C@@H]3CCC4=CC(=O)C=C[C@]4(C)[C@@]3(F)[C@@H](O)C[C@@]21C` [CLOBETASOL PROPIONATE] are 21.34% and 20.25%.
On to `COC(=O)COc1cc(Cl)c(Cl)cc1Cl` [2,4,5-TRICHLOROPHENOXYACETIC ACID, METHYL ESTER], for which the results for the residual activity in series [1] and in series [2] were 116.4% and 98.01%, respectively.
For the molecule `C=C[C@H]1CN2CC[C@H]1C[C@@H]2[C@@H](O)c1ccnc2ccc(OC)cc12.O=C(O)[C@H](O)[C@@H](O)[C@H](O)[C@H](O)CO` [QUINIDINE GLUCONATE], the residual activity stood at 122% in series [1] and 103.2% in series [2].
On to `CC1(C)CC[C@]2(C)CC[C@]3(C)C(=CC[C@@H]4[C@@]5(C)CC[C@H](O)C(C)(C)[C@@H]5CC[C@]43C)[C@@H]2C1` [beta-AMYRIN], for which the residual activity in series [1] was 75.14%; in series [2] it was 65.86%.
Turning to `NC(C(=O)O)C(O)C(=O)O` (racemic) [d,l-threo-3-HYDROXYASPARTIC ACID], the residual activity in series [1] was 82.91%; in series [2] it was 70.17%.
In the same order, the values of `CCn1cc(C(=O)O)c(=O)c2cc(F)c(N3CCNCC3)cc21` [NORFLOXACIN] are 99.94% and 97.94%.
On the same counts, the results for `COc1c(O)cccc1O` [2-METHOXYRESORCINOL] are 98.72% and 95.14%.
For `CCCCCCCCCCCC1=C(O)C(=O)C=C(O)C1=O` [EMBELIN], the residual activity in series [1] was determined as 94.22%; in series [2], 98.02%.
For `O=c1c(O)cccc2cc(O)c(O)c(O)c12` [PURPUROGALLIN], the residual activity in series [1] was found to be 82.24%; in series [2], 65.05%.
On to `O=c1[nH]c2ccccc2n1C1CCN(CCCC(c2ccc(F)cc2)c2ccc(F)cc2)CC1` [PIMOZIDE], for which the residual activity came out at 121.7% in series [1] and 167.9% in series [2].
On the same counts, the results for `O=C([O-])c1ccccc1O.[Na+]` [SODIUM SALICYLATE] are 80.83% and 55.28%.
Take `CN(C)C(=O)Oc1ccc[n+](C)c1.[Br-]` [PYRIDOSTIGMINE BROMIDE]: the residual activity turned out to be 112% in series [1] and 96.49% in series [2].
For the molecule `O=C(O)CCNC(=O)c1ccccc1` [BETAMIPRON], the figures for the residual activity in series [1] and in series [2] were 92.61% and 116.1%, respectively.
For `Oc1c(Br)cc(Br)c2cccnc12` [BROXYQUINOLINE], the figures for the residual activity in series [1] and in series [2] were 75.68% and 57.32%, respectively.
In the same order, the values of `CC(CCc1ccccc1)NCC(O)c1ccc(O)c(C(N)=O)c1.Cl` (stereo not given) [LABETALOL HYDROCHLORIDE] are 101.4% and 93.55%.
Regarding `Cn1c(=O)c2[nH]cnc2n(C)c1=O.O` [THEOPHYLLINE], the figures for the residual activity in series [1] and in series [2] were 72.46% and 90.11%, respectively.
Regarding `COc1ccc2c3c([nH]c2c1)C(C)=NCC3` [HARMALINE], the residual activity came out at 115.9% in series [1] and 92.56% in series [2].
On the same counts, the results for `CN(C)CCCN1c2ccccc2Sc2ccc(Cl)cc21` [CHLORPROMAZINE] are 97.66% and 99.49%.
In the same order, the values of `CCNC(=O)CC[C@H](N)C(=O)O` [THEANINE] are 82.21% and 120.6%.
On the same counts, the results for `Cl.c1ccc(CC2=NCCN2)cc1` [TOLAZOLINE HYDROCHLORIDE] are 98.49% and 74.2%.
`OC[C@@H](O)C(O)[C@H](O)CO`: the values for the residual activity in series [1] and in series [2] were 118.8% and 121.4%, respectively.
On to `CN(C)CCN(Cc1ccccc1)c1ccccn1.O=C(O)CC(O)(CC(=O)O)C(=O)O` [TRIPELENNAMINE CITRATE], for which the residual activity in series [1] came to 93.75%; in series [2] it was 81.25%.
On the same counts, the results for `CN(C)[C@@H]1C(O)=C(C(N)=O)C(=O)[C@@]2(O)C(O)=C3C(=O)c4c(O)cccc4[C@@](C)(O)[C@H]3[C@H](O)[C@@H]12` [OXYTETRACYCLINE] are 95.2% and 61.86%.
Turning to `C[C@H]1CC[C@]2(NC1)O[C@H]1C[C@H]3[C@@H]4CC[C@H]5C[C@@H](O[C@@H]6O[C@H](CO)[C@H](O[C@@H]7O[C@H](CO)[C@@H](O)[C@H](O[C@@H]8OC[C@@H](O)[C@H](O)[C@H]8O)[C@H]7O[C@@H]7O[C@H](CO)[C@@H](O)[C@H](O)[C@H]7O)[C@H](O)[C@H]6O)CC[C@]5(C)[C@H]4CC[C@]3(C)[C@H]1[C@@H]2C` [TOMATINE], the residual activity in series [1] was determined as 100.3%; in series [2], 96.72%.
Regarding `Cc1ncc([N+](=O)[O-])n1CCO` [METRONIDAZOLE], the residual activity in series [1] is 98.27%; in series [2], 102.6%.
